Data: patent US20080269242A1, “Crystalline Salts of 7-[4-(4-Naphthalen-1-Yl-Piperazin-1-Yl)-Butoxy]-3,4-Dihydro-1H-[1,8]Naphthyridine-2-One” (priority 2005, published 2008)

How the values were obtained:
[1] = system: spontaneous locomotor activity (SLMA); test: Spontaneous locomotor activity (SLMA) in rats; assay type: in vivo, Male Sprague-Dawley rats; details: rat; for SLMA, Mean centimeters traveled in 1 hour±SEM: 60-minute absorption period, recorded 1 hour, vehicle 4066±297
Source text: Effects of 7-[4-(4-naphthalen-1-yl-piperazin-1-yl)-butoxy]-3,4-dihydro-1H-[1,8]naphthyridin-2-one on spontaneous locomotors activity (SLMA) was investigated in an in vivo animal model, which is predictive of antipsychotic efficacy.
Method: Male Sprague-Dawley rats were used in studies where SLMA was quantified using an activity monitor in a sound-attenuated chamber. Rats were randomly assigned to various groups (including a vehicle control group). 7-[4-(4naphthalen-1-yl-piperazin-1-yl)-butoxy]-3,4-dihydro-1H-[1,8]naphthyridin-2-one at doses of 0.1 mg/kg, 0.3 mg/kg, 1 mg/kg, 3 mg/kg, and 10 mg/kg, or vehicle were administered orally. Following a 60-minute absorption period, each rat was placed into the test chamber, and SLMA was recorded for a 1-hour time-period. SLMA is expressed as centimeters traveled. Statistical analysis was performed using a one-way ANOVA followed by a post hoc Dunnett's test.

D2 receptors = D2 receptors (Homo sapiens, UniProt P14416); details: background statement, compound of WO2005/019215; cited from earlier work
Chain of D2 receptors (P14416 whole entry, species assumed): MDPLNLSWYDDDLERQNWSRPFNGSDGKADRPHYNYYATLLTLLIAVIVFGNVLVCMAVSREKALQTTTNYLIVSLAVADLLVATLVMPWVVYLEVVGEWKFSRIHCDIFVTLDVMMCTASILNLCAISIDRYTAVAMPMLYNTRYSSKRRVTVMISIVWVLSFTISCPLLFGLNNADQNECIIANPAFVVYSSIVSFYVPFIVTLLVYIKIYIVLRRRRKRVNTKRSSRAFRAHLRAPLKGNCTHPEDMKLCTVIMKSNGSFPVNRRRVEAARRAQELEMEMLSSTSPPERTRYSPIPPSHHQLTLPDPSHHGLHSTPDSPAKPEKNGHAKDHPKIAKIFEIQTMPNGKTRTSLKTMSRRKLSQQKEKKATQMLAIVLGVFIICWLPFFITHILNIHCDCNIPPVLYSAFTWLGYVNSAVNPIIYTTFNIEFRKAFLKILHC

dopamine D2 receptor = dopamine D2 receptor (Homo sapiens, UniProt P14416); details: background statement, compound of WO2005/019215; cited from earlier work
Chain of dopamine D2 receptor (P14416 whole entry, species assumed): as above

[2] = Solid-state stability study, open dish; assay type: physicochemical; details: for solid-state stability (degradation): open dish, 6 month
[3] = Conversion of crystalline form on standing; assay type: physicochemical; details: ambient temperatures

O=C1CCc2ccc(OCCCCN3CCN(c4cccc5ccccc45)CC3)nc2N1 [7-[4-(4-naphthalen-1-yl-piperazin-1-yl)-butoxy]-3,4-dihydro-1H-[1,8]naphthyridin-2-one]
SLMA, Mean centimeters traveled in 1 hour±SEM ([1]; 0.1 mg/kg orally, not statistically different from vehicle): 3998±133 centimeters | SLMA, Mean centimeters traveled in 1 hour±SEM ([1]; 0.3 mg/kg orally, p<0.05 vs vehicle): 2510±185 centimeters | SLMA, Mean centimeters traveled in 1 hour±SEM ([1]; 1 mg/kg orally, p<0.05 vs vehicle): 1977±173 centimeters | SLMA, Mean centimeters traveled in 1 hour±SEM ([1]; 3 mg/kg orally, p<0.05 vs vehicle): 1742±206 centimeters | SLMA, Mean centimeters traveled in 1 hour±SEM ([1]; 10 mg/kg orally, p<0.05 vs vehicle): 1068±208 centimeters | effect on SLMA (in words) ([1]; oral, 0.1-10 mg/kg): dose-dependent reduction | minimum effective dose (reduction of SLMA) ([1]; oral, estimated): 0.3 mg/kg | activity at D2 receptors (in words) (D2 receptors): partial agonist | binding to the dopamine D2 receptor (in words) (dopamine D2 receptor): binds

O=C1CCc2ccc(OCCCCN3CCN(c4cccc5ccccc45)CC3)nc2N1.O=P(O)(O)O [Form A, 7-[4-(4-naphthalen-1-yl-piperazin-1-yl)-butoxy]-3,4-dihydro-1H-[1,8]naphthyridin-2-one mono-phosphate]
solid-state stability (degradation) ([2]; 25° C./60% relative humidity): little or no degradation | solid-state stability (degradation) ([2]; 30° C./70% relative humidity): little or no degradation | solid-state stability (degradation) ([2]; 40° C./75% relative humidity): little or no degradation | relative stability of crystalline forms ([2]; Form A compared with Form B): more stable than Form B

O=C1CCc2ccc(OCCCCN3CCN(c4cccc5ccccc45)CC3)nc2N1.O=P(O)(O)O [Form B, 7-[4-(4-naphthalen-1-yl-piperazin-1-yl)-butoxy]-3,4-dihydro-1H-[1,8]naphthyridin-2-one mono-phosphate]
form conversion on standing [3]: convert to Form A
